Patent publication US6372774B1, “Derivatives of N-phenylpyrazoles” (Rhone-Poulenc Agriculture Ltd., priority 1985, dated 2002)

How the values were obtained:
[1] = tested on: Plutella xylostella (Diamond-back Moth); assay: whole plant or invertebrate; format: in vivo; settings: foliar; for mortality at 500 ppm: read-out: mortality of larvae of Plutella xylostella
Excerpt: (§1) One or more dilutions of the compounds to be tested were made in 50% aqueous acetone.
(§2) a) Test species: Plutella xylostella (Diamond-back Moth) and Phaedon cochleariae (Mustard Beetle)
(§3) Turnip leaf discs were set in agar in petri-dishes and infected with 10 larvae (2nd instar Plutella or 3rd instar Phaedon). Four replicate dishes were assigned to each treatment and were sprayed under a Potter Tower with the appropriate test dilution. Four or five days after treatment the dishes were removed from the constant temperature (25° C.) room in which they had been held and the mean percentage mortalities of larvae were determined.

[2] = tested on: Phaedon cochleariae (Mustard Beetle); assay: Test 3 a): leaf disc spray test, Phaedon cochleariae larvae; format: in vivo; settings: Phaedon cochleariae, foliar; for pest or weed control at 10 ppm: read-out: Phaedon % m 10 ppm; for mortality at 5 ppm: read-out: mortality of larvae of Phaedon cochleariae
Excerpt: as §1, §2, §3

[3] = tested on: Megoura viciae (Vetch Aphid); assay: Test 3 b): spray of infested tic bean plants, Megoura viciae; format: in vivo; settings: for Megoura score/12 50 ppm: Tables 1 and 3, sum of scores 0-3 of 4 replicates; for mortality at 50 ppm: Megoura viciae, read-out: mortality of Megoura viciae; for score from 4 replicates, Megoura viciae: Test 3 method (b), application of 50 ppm, score 0-3 per replicate, maximum 12
Experimental: as §1
b) Megoura viciae (Vetch Aphid)
Potted tic bean plants previously infected with mixed stages of Megoura were sprayed to run-off using a laboratory turntable sprayer. Treated plants were held in a greenhouse for 2 days and were assessed for aphid mortality using a scoring system, judging the response in comparison with plants treated with 50% aqueous acetone alone, as controls.

| melting point | Structure (SMILES) | mortality at 500 ppm [1] | further results |
| --- | --- | --- | --- |
| 202 to 204 °C | Cc1nn(-c2c(Cl)cc(C(F)(F)F)cc2Cl)c(N2C(=O)CCC2=O)c1C#N [Compound 169, 4-Cyano-1-(2,6-dichloro-4-trifluoromethylphenyl)-3-methyl-5-succinimidopyrazole] | – | – |
| 194 to 195 °C | CC(=O)Nc1c(S(C)(=O)=O)c(C(F)(F)F)nn1-c1c(Cl)cc(C(F)(F)F)cc1Cl [Compound 170, 5-Acetamido-1-(2,6-dichloro-4-trifluoromethylphenyl)-4-methanesulphonyl-3-trifluoromethylpyrazole] | – | – |
| 88 to 90 °C | FC(F)c1cn(-c2c(Cl)cc(C(F)(F)F)cc2Cl)nc1C(F)(F)F [Compound 235, 1-(2,6-Dichloro-4-trifluoromethylphenyl)-4-difluoromethyl-3-trifluoromethylpyrazole] | – | – |
| 116 to 118 °C | N#Cc1nn(-c2c(Cl)cc(C(F)(F)F)cc2Cl)c(N)c1SC(F)(F)C(F)Cl (stereo not shown) | – | – |
| 165 to 166 °C | CNc1c(C#N)c(C#N)nn1-c1c(Cl)cc(C(F)(F)F)cc1Cl | – | – |
| – | N#Cc1cn(-c2c(Cl)cc(C(F)(F)F)cc2Cl)nc1C(F)(F)F [Compound 150, 4-Cyano-1-(2,6-dichloro-4-trifluoromethylphenyl)-3-trifluoromethylpyrazole] | 100% | pest or weed control at 10 ppm [2]: 100%; Megoura score/12 50 ppm [3]: 10 |
| 115 to 118 °C | CCOC(=O)c1c(C)nn(-c2c(Cl)cc(C(F)(F)F)cc2Cl)c1N [Compound 162, 5-Amino-1-(2,6-dichloro-4-trifluoromethylphenyl)-3-methyl-4-ethoxycarbonylpyrazole] | – | – |
| 194 to 195 °C | CC(=O)Nc1c([N+](=O)[O-])c(C(F)(F)F)nn1-c1c(Cl)cc(C(F)(F)F)cc1Cl [Compound 192, 5-Acetamido-1-(2,6-dichloro-4-trifluoromethylphenyl)-4-nitro-3-trifluoromethylpyrazole] | – | – |
| 147 to 150 °C | N#Cc1nn(-c2c(Cl)cc(C(F)(F)F)cc2Cl)c(Br)c1[N+](=O)[O-] | – | – |
| – | N#Cc1c(C(F)(F)F)nn(-c2c(Cl)cc([S+]([O-])C(F)(F)F)cc2Cl)c1N (stereo not shown) [Compound 219, 5-Amino-4-cyano-1-(2,6-dichloro-4-trifluoromethylsulphinylphenyl)-3-trifluoromethylpyrazole] | 100% | mortality at 5 ppm [2]: 100%; mortality at 50 ppm [3]: 100%; score from 4 replicates, Megoura viciae [3]: 12 |
| 186 to 187 °C | N#Cc1nn(-c2c(Cl)cc(C(F)(F)F)cc2Cl)c(NC(=O)C(Cl)Cl)c1C#N | – | – |
| 133.5 °C | Cc1nn(-c2c(Cl)cc(C(F)(F)F)cc2Cl)c(N)c1SC#N [Compound 231, 5-Amino-1-(2,6-dichloro-4-trifluoromethylphenyl)-3-methyl-4-thiocyanatopyrazole] | – | – |
| 145.5 to 147 °C | CCCS(=O)(=O)c1c(C)nn(-c2c(Cl)cc(C(F)(F)F)cc2Cl)c1N [Compound 223, 5-Amino-1-(2,6-dichloro-4-trifluoromethylphenyl)-3-methyl-4-propanesulphonylpyrazole] | – | – |
| 77 to 79 °C | CCCOC=Nc1c(C#N)c(C)nn1-c1c(Cl)cc(C(F)(F)F)cc1Cl [Compound 119, 4-Cyano-1-(2,6-dichloro-4-trifluoromethylphenyl)-3-methyl-5-propoxymethyleneaminopyrazole] | – | – |
| 180 to 181 °C | Cc1nn(-c2c(Cl)cc(OC(F)(F)F)cc2Cl)c(N)c1S(C)(=O)=O [Compound 163, 5-Amino-1-(2,6-dichloro-4-trifluoromethoxyphenyl)-4-methanesulphonyl-3-methylpyrazole] | – | – |
| – | C[Si](C)(C)c1c([N+](=O)[O-])c(C(F)(F)F)nn1-c1c(Cl)cc(C(F)(F)F)cc1Cl [Compound 210, 1-(2,6-Dichloro-4-trifluoromethylphenyl)-4-nitro-3-trifluoromethyl-5-trimethylsilylpyrazole] | 100% | mortality at 5 ppm [2]: 100%; mortality at 50 ppm [3]: 100%; score from 4 replicates, Megoura viciae [3]: 12 |
| 193 °C | CCS(=O)(=O)c1c(C)nn(-c2c(Cl)cc(C(F)(F)F)cc2Cl)c1N [Compound 222, 5-Amino-1-(2,6-dichloro-4-trifluoromethylphenyl)-4-ethylsulphonyl-3-methylpyrazole] | – | – |
| 156 °C | Cc1nn(-c2c(Cl)cc(C(F)(F)F)cc2Cl)c(N)c1SC(Cl)(Cl)Cl [Compound 233, 5-Amino-1-(2,6-dichloro-4-trifluoromethylphenyl)-3-methyl-4-trichloromethylthiopyrazole] | – | – |
| 176 to 177 °C | N#Cc1c(C(F)(F)F)nn(-c2c(Cl)c(F)c(C(F)(F)F)c(F)c2Cl)c1N [Compound 167, 5-Amino-4-cyano-1-(2,6-dichloro-3,5-difluoro-4-trifluoromethylphenyl)-3-trifluoromethylpyrazole] | – | – |
| 160 to 162 °C | CCOC=Nc1c(C#N)c(C(F)(F)F)nn1-c1c(Cl)cc(C(F)(F)F)cc1Cl [Compound 135, 4-Cyano-1-(2,6-dichloro-4-trifluoromethylphenyl)-5-ethoxymethyleneamino-3-trifluoromethylpyrazole] | – | – |
| – | N#Cc1c(C(F)F)nn(-c2c(Cl)cc(C(F)(F)F)cc2Cl)c1N [Compound 129, 5-Amino-1-(2,6-dichloro-4-trifluoromethylphenyl)-4-cyano-3-difluoromethylpyrazole] | 100% | pest or weed control at 10 ppm [2]: 100%; mortality at 50 ppm [3]: 100%; score from 4 replicates, Megoura viciae [3]: 12 |
| – | CCSc1c(C(F)(F)F)nn(-c2c(Cl)cc(C(F)(F)F)cc2Cl)c1N [Compound 228, 5-Amino-1-(2,6-dichloro-4-trifluoromethylphenyl)-4-ethylthio-3-trifluoromethylpyrazole] | 100% | mortality at 5 ppm [2]: 100%; mortality at 50 ppm [3]: 100%; score from 4 replicates, Megoura viciae [3]: 12 |
| – | N#Cc1c(C(F)(F)F)nn(-c2c(Cl)cc(OC(F)(F)F)cc2Cl)c1N [Compound 144, 5-Amino-4-cyano-1-(2,6-dichloro-4-trifluoromethoxyphenyl)-3-trifluoromethylpyrazole] | 100% | mortality at 5 ppm [2]: 100%; mortality at 50 ppm [3]: 100%; score from 4 replicates, Megoura viciae [3]: 12 |
| – | N#Cc1c(Cl)nn(-c2c(Cl)cc(C(F)(F)F)cc2Cl)c1N [Compound 114, 5-Amino-3-chloro-4-cyano-1-(2,6-dichloro-4-trifluoromethylphenyl)pyrazole] | 100% | pest or weed control at 10 ppm [2]: 100%; Megoura score/12 50 ppm [3]: 9 |
| – | N#Cc1c(C(F)(F)F)nn(-c2c(Cl)cc(C(F)(F)F)cc2Cl)c1I [Compound 151, 4-Cyano-1-(2,6-dichloro-4-trifluoromethylphenyl)-5-iodo-3-trifluoromethylpyrazole] | 100% | pest or weed control at 10 ppm [2]: 100%; Megoura score/12 50 ppm [3]: 11 |
| – | N#Cc1c(Br)nn(-c2c(Cl)cc(C(F)(F)F)cc2Cl)c1N [Compound 115, 5-Amino-3-bromo-4-cyano-1-(2,6-dichloro-4-trifluoromethylphenyl)pyrazole] | 100% | pest or weed control at 10 ppm [2]: 100%; Megoura score/12 50 ppm [3]: 10 |
| – | COC=Nc1c(C#N)c(C)nn1-c1c(Cl)cc(C(F)(F)F)cc1Cl [Compound 118, 4-Cyano-1-(2,6-dichloro-4-trifluoromethylphenyl)-3-methyl-5-methoxymethyleneaminopyrazole] | – | pest or weed control at 500 ppm ([1]; read-out: Plutella % m 500 ppm): 73%; pest or weed control at 10 ppm [2]: 45%; Megoura score/12 50 ppm [3]: 10 |
